# According to ChEMBL document CHEMBL4330112, “Monodisperse oligoethylene glycols modified Camptothecin, 10-Hydroxycamptothecin and SN38 prodrugs” (Bioorg Med Chem Lett, 2019):
# Experiments:
# [1] = Solubility of the compound in phosphate buffered saline by UV-spectroscopic analysis; type: physicochemical
# HepG2 = experiment: Cytotoxicity against human HepG2 cells after 72 hrs by MTT assay; type: functional, cell-based; conditions: HepG2, 72 h
# MCF7 = experiment: Cytotoxicity against human MCF7 cells after 72 hrs by MTT assay; type: functional, cell-based; conditions: MCF7, 72 h
# [2] = Prodrug conversion in Sprague-Dawley rat plasma assessed as SN38 formation at 4 mg measured within 2 hrs by UV-based RP-HPLC analysis; type: ADME, cell-free
# [3] = Prodrug conversion in Sprague-Dawley rat plasma assessed as 10-hydroxycamptothecin formation at 4 mg measured within 2 hrs by UV-based RP-HPLC analysis; type: ADME, cell-free
# [4] = phosphate buffered saline, read-out: solubility
"solubility [1, 4] [mg/mL]",Structure (SMILES),IC50 (HepG2) [µM],IC50 (MCF7) [µM],Drug metabolism [2],Drug metabolism [3],solubility ([1]; buffer) [mg/mL]
,CC[C@@]1(O)C(=O)OCc2c1cc1n(c2=O)Cc2cc3cc(OC(=O)OCCOCCOCCOCCOCCOCCOCCOCCOCCOCCOCCOCCOCCOCCOCCOC)ccc3nc2-1,1.71,4.47,,,
272,CC[C@@]1(OC(=O)OCCOCCOCCOCCOCCOCCOCCOCCOCCOCCOCCOCCOCCOCCOCCOCCOCCOCCOCCOCCOCCOCCOCCOCCOC)C(=O)OCc2c1cc1n(c2=O)Cc2cc3ccccc3nc2-1,6.17,8.62,,,
143,CC[C@@]1(OC(=O)OCCOCCOCCOCCOCCOCCOCCOCCOCCOCCOCCOCCOCCOCCOCCOCCOCCOCCOCCOC)C(=O)OCc2c1cc1n(c2=O)Cc2cc3ccccc3nc2-1,3.61,7.43,,,
,CC[C@@]1(O)C(=O)OCc2c1cc1n(c2=O)Cc2cc3cc(OC(=O)OCCOCCOCCOCCOCCOCCOCCOCCOCCOCCOCCOCCOCCOCCOCCOCCOCCOCCOCCOCCOC)ccc3nc2-1,3.62,6.88,,,
,CC[C@@]1(O)C(=O)OCc2c1cc1n(c2=O)Cc2cc3cc(OCCOCCOCCOCCOCCOCCOCCOCCOCCOCCOCCOCCO)ccc3nc2-1,> 100,> 100,,,
,CC[C@@]1(O)C(=O)OCc2c1cc1n(c2=O)Cc2cc3cc(OC(=O)OCCOCCOCCOCCOCCOCCOCCOCCOCCOCCOCCOCCOCCOCCOC)ccc3nc2-1,1.79,5.61,,,
82.8,CC[C@@]1(OC(=O)OCCOCCOCCOCCOCCOCCOCCOCCOCCOCCOCCOCCOC)C(=O)OCc2c1cc1n(c2=O)Cc2cc3ccccc3nc2-1,5.97,3.36,,,
0.38,CC[C@@]1(OC(=O)OCCOCCOCCOCCOCCOCCOCCOCCOC)C(=O)OCc2c1cc1n(c2=O)Cc2cc3ccccc3nc2-1,5.47,7.42,,,
,CCc1c2c(nc3ccc(OC(=O)OCCOCCOCCOCCOCCOCCOCCOCCOCCOCCOCCOCCOCCOCCOCCOCCOCCOCCOCCOCCOC)cc13)-c1cc3c(c(=O)n1C2)COC(=O)[C@]3(O)CC,1.98,3.08,,,
136,CC[C@@]1(OC(=O)OCCOCCOCCOCCOCCOCCOCCOCCOCCOCCOCCOCCOCCOCCOCCOCCOC)C(=O)OCc2c1cc1n(c2=O)Cc2cc3ccccc3nc2-1,4.72,6.17,,,
,CC[C@@]1(O)C(=O)OCc2c1cc1n(c2=O)Cc2cc3cc(OC(=O)OCCOCCOCCOCCOCCOCCOCCOCCOCCOCCOCCOC)ccc3nc2-1,2.51,4.64,,,
,CC[C@@]1(O)C(=O)OCc2c1cc1n(c2=O)Cc2cc3cc(OC(=O)OCCOCCOCCOCCOCCOCCOCCOCCOCCOCCOCCOCCOC)ccc3nc2-1,2.21,2.85,Metabolite_Detected,Metabolite_Detected,
,CC[C@@]1(O)C(=O)OCc2c1cc1n(c2=O)Cc2cc3cc(OCCOCCOCCOCCOCCOCCOCCOCCOCCOCCO)ccc3nc2-1,> 100,> 100,,,
,CC[C@@]1(O)C(=O)OCc2c1cc1n(c2=O)Cc2cc3cc(OC(=O)OCCOCCOCCOCCOCCOCCOCCOCCOCCOCCOCCOCCOCCOCCOCCOCCOCCOCCOCCOC)ccc3nc2-1,2.2,6.09,,,
,CC[C@@]1(O)C(=O)OCc2c1cc1n(c2=O)Cc2cc3cc(OC(=O)OCCOCCOCCOCCOCCOCCOCCOCCOCCOCCOCCOCCOCCOCCOCCOCCOCCOCCOCCOCCOCCOCCOCCOCCOC)ccc3nc2-1,2.69,6.76,,,
183,CC[C@@]1(OC(=O)OCCOCCOCCOCCOCCOCCOCCOCCOCCOCCOCCOCCOCCOCCOCCOCCOCCOCCOCCOCCOC)C(=O)OCc2c1cc1n(c2=O)Cc2cc3ccccc3nc2-1,6.87,8.09,,,
,CCc1c2c(nc3ccc(OC(=O)OCCOCCOCCOCCOCCOCCOCCOCCOCCOCCOCCOCCOCCOCCOCCOC)cc13)-c1cc3c(c(=O)n1C2)COC(=O)[C@]3(O)CC,2.31,4.72,Metabolite_Detected,Metabolite_Detected,
79.5,CC[C@@]1(OC(=O)OCCOCCOCCOCCOCCOCCOCCOCCOCCOCCOCCOC)C(=O)OCc2c1cc1n(c2=O)Cc2cc3ccccc3nc2-1,4.78,8.48,,,
,CC[C@@]1(O)C(=O)OCc2c1cc1n(c2=O)Cc2cc3cc(OCCOCCOCCOCCOCCOCCOCCOCCOCCO)ccc3nc2-1,> 100,> 100,,,
,CC[C@@]1(O)C(=O)OCc2c1cc1n(c2=O)Cc2cc3cc(OCCOCCOCCOCCOCCOCCOCCOCCOCCOCCOCCO)ccc3nc2-1,> 100,> 100,,,
114,CC[C@@]1(OC(=O)OCCOCCOCCOCCOCCOCCOCCOCCOCCOCCOCCOCCOCCOCCOCCOC)C(=O)OCc2c1cc1n(c2=O)Cc2cc3ccccc3nc2-1,7.07,8.53,,,
,CC[C@@]1(O)C(=O)OCc2c1cc1n(c2=O)Cc2cc3cc(OC(=O)OCCOCCOCCOCCOCCOCCOCCOCCOCCOCCOCCOCCOCCOCCOCCOCCOC)ccc3nc2-1,2.75,6.16,,,
94.1,CC[C@@]1(OC(=O)OCCOCCOCCOCCOCCOCCOCCOCCOCCOCCOCCOCCOCCOCCOC)C(=O)OCc2c1cc1n(c2=O)Cc2cc3ccccc3nc2-1,5.15,7.43,,,
0.52,CC[C@@]1(OC(=O)OCCOCCOCCOCCOCCOCCOCCOCCOCCOCCOC)C(=O)OCc2c1cc1n(c2=O)Cc2cc3ccccc3nc2-1,4.48,10.3,,,
0.00087,CCc1c2c(nc3ccc(O)cc13)-c1cc3c(c(=O)n1C2)COC(=O)[C@]3(O)CC [7-ETHYL-10-HYDROXYCAMPTOTHECIN],0.48,1.25,,,
,CC[C@@]1(O)C(=O)OCc2c1cc1n(c2=O)Cc2cc3cc(O)ccc3nc2-1 [HYDROXYCAMPTOTHECIN],1.47,3.58,,,0.00094

Structure (SMILES),"solubility [1, 4] [mg/mL]",IC50 (HepG2) [µM],IC50 (MCF7) [µM],Drug metabolism [2],Drug metabolism [3],solubility ([1]; buffer) [mg/mL]
CC[C@@]1(O)C(=O)OCc2c1cc1n(c2=O)Cc2cc3cc(OCCOCCOCCOCCO)ccc3nc2-1,0.95,41.8,74.6,,,
CC[C@@]1(O)C(=O)OCc2c1cc1n(c2=O)Cc2cc3cc(OCCOCCOCCOCCOCCOCCOCCO)ccc3nc2-1,73.3,62.4,> 100,,,
CC[C@@]1(O)C(=O)OCc2c1cc1n(c2=O)Cc2cc3cc(OCCOCCOCCOCCOCCOCCOCCOCCO)ccc3nc2-1,249,> 100,> 100,,,
CC[C@@]1(O)C(=O)OCc2c1cc1n(c2=O)Cc2cc3cc(OC(=O)OCCOCCOCCOCCOCCOCCOCCOCCOC)ccc3nc2-1,85.1,3.06,5.39,,,
CC[C@@]1(O)C(=O)OCc2c1cc1n(c2=O)Cc2cc3cc(OCCOCCOCCOCCOCCOCCO)ccc3nc2-1,11,50,> 100,,,
CC[C@@]1(O)C(=O)OCc2c1cc1n(c2=O)Cc2cc3cc(OCCOCCOCCOCCOCCO)ccc3nc2-1,6.34,70.3,95.8,,,
CC[C@@]1(O)C(=O)OCc2c1cc1n(c2=O)Cc2cc3cc(OC(=O)OCCOCCOCCOCCOCCOCCOCCOCCOCCOCCOC)ccc3nc2-1,142,2.08,5.44,,,
CC[C@@]1(O)C(=O)OCc2c1cc1n(c2=O)Cc2cc3ccccc3nc2-1 [CAMPTOTHECIN],0.00069,0.66,0.68,,,
